Test results as given in ChEMBL document CHEMBL4507270 (2021).

Key:
Ephrin type-B receptor 6 = target: T1, Ephrin type-B receptor 6 (Homo sapiens, UniProt O15197); test: NanoBRET assay (SGC Frankfurt) with EPHB6
T1 sequence (O15197 whole entry): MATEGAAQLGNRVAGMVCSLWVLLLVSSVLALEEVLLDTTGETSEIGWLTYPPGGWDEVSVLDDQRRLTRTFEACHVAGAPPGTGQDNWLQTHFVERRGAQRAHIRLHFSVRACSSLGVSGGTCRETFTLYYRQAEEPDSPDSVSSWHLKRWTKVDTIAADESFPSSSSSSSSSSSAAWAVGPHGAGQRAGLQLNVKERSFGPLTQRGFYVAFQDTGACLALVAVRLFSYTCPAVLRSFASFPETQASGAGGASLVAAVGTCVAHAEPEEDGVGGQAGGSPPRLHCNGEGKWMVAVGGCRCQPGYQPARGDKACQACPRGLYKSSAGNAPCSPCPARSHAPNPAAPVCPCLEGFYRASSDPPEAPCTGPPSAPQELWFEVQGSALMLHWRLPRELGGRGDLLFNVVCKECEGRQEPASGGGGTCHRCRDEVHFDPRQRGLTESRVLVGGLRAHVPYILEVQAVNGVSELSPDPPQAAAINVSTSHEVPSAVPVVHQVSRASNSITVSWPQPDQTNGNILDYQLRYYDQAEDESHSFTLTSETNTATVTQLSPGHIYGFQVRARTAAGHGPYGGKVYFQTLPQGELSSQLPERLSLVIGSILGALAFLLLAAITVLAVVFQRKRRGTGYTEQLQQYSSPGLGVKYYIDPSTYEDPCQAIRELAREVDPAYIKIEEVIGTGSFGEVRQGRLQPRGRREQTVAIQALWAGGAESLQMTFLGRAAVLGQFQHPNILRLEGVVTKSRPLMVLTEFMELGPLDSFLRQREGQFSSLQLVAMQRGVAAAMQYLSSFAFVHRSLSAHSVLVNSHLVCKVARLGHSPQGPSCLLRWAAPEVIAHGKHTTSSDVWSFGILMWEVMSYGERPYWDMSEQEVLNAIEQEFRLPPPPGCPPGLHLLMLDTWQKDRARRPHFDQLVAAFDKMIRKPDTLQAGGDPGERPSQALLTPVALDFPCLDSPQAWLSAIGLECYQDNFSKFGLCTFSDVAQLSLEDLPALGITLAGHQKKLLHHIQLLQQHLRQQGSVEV

[1] = system: Tyrosine-protein kinase ABL1 (Homo sapiens), P00519 [F317I]
Tyrosine-protein kinase ABL1 (Homo sapiens), P00519 [F317I], sequence (P00519 whole entry F317I): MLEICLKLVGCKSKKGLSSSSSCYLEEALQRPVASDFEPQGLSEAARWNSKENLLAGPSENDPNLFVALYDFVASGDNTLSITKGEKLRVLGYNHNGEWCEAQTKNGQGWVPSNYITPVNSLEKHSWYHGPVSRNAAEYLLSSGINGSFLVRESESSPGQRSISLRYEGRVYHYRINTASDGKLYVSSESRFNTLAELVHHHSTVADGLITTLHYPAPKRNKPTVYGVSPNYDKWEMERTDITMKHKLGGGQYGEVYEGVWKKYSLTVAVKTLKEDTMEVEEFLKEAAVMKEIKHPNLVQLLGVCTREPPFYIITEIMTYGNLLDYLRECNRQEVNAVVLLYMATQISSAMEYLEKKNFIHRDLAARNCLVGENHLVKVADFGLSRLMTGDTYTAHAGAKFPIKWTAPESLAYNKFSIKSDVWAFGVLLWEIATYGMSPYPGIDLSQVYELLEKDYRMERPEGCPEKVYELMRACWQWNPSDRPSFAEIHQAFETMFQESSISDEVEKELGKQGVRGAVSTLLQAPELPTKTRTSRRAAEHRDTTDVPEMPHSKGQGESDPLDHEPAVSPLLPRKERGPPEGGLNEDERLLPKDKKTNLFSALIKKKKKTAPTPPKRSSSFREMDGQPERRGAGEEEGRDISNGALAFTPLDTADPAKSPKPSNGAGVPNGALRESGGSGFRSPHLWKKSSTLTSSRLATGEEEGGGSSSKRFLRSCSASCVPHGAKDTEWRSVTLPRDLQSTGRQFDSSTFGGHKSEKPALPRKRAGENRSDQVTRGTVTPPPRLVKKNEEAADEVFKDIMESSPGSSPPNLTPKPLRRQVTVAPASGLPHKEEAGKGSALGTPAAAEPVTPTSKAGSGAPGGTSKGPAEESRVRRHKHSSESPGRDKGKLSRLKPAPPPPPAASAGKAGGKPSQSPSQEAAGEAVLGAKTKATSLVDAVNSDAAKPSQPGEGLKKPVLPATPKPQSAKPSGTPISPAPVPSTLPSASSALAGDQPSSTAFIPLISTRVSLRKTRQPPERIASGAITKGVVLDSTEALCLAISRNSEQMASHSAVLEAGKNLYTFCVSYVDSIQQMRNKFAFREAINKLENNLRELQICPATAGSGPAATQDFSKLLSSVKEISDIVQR

[2] = target: Activin receptor type-2B (Homo sapiens) (UniProt Q13705)
[3] = target: RAC-beta serine/threonine-protein kinase (Homo sapiens) (UniProt P31751)
[4] = target: 5'-AMP-activated protein kinase catalytic subunit alpha-2 (Homo sapiens) (UniProt P54646)
[5] = target: Aurora kinase C (Homo sapiens) (UniProt Q9UQB9)
[6] = target: Tyrosine-protein kinase BTK (Homo sapiens) (UniProt Q06187)
Tyrosine-protein kinase BTK (Homo sapiens), sequence (Q06187 whole entry): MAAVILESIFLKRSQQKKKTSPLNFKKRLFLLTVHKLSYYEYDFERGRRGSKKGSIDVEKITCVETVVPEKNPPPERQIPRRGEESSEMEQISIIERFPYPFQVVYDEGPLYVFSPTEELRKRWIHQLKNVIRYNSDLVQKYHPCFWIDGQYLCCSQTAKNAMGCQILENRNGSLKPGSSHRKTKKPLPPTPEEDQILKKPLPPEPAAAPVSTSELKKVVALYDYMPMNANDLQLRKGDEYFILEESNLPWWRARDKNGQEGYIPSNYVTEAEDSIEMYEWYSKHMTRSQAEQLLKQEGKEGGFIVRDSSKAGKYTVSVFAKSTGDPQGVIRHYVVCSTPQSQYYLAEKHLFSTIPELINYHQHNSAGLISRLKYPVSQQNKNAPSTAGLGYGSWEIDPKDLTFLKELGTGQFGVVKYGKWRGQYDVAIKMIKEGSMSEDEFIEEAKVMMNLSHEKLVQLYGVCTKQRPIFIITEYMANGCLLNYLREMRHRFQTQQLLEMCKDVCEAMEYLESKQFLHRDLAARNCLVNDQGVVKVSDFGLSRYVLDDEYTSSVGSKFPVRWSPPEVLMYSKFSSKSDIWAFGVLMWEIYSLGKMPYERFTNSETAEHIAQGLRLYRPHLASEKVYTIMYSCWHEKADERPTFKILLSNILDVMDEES

[7] = target: Calcium/calmodulin-dependent protein kinase kinase 1 (Homo sapiens) (UniProt Q8N5S9)
[8] = target: Serine/threonine-protein kinase 17A (Homo sapiens) (UniProt Q9UEE5)
[9] = target: Epidermal growth factor receptor (Homo sapiens) (UniProt P00533)
[10] = target: Ephrin type-B receptor 2 (Homo sapiens) (UniProt P29323)
Ephrin type-B receptor 2 (Homo sapiens), sequence (P29323 whole entry): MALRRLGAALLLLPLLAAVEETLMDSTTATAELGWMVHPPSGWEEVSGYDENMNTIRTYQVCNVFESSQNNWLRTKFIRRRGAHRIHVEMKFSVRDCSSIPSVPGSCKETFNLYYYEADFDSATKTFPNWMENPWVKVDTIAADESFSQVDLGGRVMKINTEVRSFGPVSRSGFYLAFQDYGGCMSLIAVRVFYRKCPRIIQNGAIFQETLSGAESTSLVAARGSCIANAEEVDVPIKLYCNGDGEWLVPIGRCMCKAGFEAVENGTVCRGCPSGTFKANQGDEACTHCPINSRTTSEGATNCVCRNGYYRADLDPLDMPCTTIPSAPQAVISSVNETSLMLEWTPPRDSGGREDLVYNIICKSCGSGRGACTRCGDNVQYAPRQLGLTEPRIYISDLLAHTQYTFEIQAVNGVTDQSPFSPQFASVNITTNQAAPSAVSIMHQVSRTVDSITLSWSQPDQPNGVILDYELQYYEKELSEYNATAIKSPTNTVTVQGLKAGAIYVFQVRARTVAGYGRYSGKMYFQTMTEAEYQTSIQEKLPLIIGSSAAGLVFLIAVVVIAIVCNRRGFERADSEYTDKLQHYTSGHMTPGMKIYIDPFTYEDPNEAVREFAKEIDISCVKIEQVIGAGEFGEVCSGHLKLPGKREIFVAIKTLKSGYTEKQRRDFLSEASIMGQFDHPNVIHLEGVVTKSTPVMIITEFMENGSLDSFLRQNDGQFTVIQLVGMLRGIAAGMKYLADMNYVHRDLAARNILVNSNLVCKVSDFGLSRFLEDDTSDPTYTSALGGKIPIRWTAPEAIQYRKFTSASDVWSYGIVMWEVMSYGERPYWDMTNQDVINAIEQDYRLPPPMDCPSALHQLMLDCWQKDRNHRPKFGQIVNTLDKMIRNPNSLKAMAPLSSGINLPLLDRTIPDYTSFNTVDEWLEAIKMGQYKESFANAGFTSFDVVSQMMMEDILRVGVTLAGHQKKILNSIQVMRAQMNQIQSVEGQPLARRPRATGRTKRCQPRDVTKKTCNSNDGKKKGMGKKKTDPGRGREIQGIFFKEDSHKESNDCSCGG

[11] = target: Serine/threonine-protein kinase/endoribonuclease IRE1 (Homo sapiens) (UniProt O75460)
[12] = system: Receptor-type tyrosine-protein kinase FLT3 (Homo sapiens), P36888 [K663Q]
[13] = target: Cyclin-G-associated kinase (Homo sapiens) (UniProt O14976)
[14] = target: Tyrosine-protein kinase HCK (Homo sapiens) (UniProt P08631)
[15] = target: Inhibitor of nuclear factor kappa-B kinase subunit beta (Homo sapiens) (UniProt O14920)
Inhibitor of nuclear factor kappa-B kinase subunit beta (Homo sapiens), sequence (O14920 whole entry): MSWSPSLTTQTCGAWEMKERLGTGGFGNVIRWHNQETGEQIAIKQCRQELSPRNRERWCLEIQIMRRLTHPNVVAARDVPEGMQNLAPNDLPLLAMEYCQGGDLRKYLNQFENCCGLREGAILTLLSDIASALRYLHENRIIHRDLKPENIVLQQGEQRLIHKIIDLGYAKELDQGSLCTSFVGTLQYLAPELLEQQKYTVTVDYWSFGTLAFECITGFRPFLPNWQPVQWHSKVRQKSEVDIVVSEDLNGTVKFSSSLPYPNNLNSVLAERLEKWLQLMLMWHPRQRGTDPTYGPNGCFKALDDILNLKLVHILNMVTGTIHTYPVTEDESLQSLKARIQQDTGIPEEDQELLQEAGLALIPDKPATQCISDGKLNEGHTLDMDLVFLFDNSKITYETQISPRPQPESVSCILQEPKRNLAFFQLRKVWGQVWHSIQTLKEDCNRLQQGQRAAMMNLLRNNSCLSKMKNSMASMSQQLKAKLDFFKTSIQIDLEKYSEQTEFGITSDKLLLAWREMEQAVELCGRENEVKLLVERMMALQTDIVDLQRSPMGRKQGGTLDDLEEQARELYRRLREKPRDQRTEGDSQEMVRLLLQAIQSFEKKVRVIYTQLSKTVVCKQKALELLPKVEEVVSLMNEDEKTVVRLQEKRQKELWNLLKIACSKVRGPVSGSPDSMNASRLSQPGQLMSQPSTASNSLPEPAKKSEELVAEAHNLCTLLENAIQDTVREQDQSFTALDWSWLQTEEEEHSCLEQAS

[16] = target: Tyrosine-protein kinase JAK1 (Homo sapiens) (UniProt P23458)
[17] = target: Mitogen-activated protein kinase 9 (Homo sapiens) (UniProt P45984)
[18] = target: MAP kinase-interacting serine/threonine-protein kinase 2 (Homo sapiens) (UniProt Q9HBH9)
MAP kinase-interacting serine/threonine-protein kinase 2 (Homo sapiens), sequence (Q9HBH9 whole entry, looked up): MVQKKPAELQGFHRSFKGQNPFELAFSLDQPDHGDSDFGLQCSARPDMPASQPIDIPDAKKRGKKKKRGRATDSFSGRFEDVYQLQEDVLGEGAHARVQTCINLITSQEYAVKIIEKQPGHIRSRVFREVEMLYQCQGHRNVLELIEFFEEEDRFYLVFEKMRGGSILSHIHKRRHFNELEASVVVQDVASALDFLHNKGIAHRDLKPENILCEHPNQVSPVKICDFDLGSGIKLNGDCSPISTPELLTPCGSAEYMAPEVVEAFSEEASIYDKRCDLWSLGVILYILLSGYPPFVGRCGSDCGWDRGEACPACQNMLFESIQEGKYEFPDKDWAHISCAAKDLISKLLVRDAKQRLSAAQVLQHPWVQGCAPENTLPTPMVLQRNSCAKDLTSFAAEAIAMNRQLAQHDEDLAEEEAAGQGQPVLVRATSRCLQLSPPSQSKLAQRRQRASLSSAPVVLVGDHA

[19] = target: Macrophage-stimulating protein receptor (Homo sapiens) (UniProt Q04912)
[20] = target: Serine/threonine-protein kinase Nek6 (Homo sapiens) (UniProt Q9HC98)
Serine/threonine-protein kinase Nek6 (Homo sapiens), sequence (Q9HC98 whole entry): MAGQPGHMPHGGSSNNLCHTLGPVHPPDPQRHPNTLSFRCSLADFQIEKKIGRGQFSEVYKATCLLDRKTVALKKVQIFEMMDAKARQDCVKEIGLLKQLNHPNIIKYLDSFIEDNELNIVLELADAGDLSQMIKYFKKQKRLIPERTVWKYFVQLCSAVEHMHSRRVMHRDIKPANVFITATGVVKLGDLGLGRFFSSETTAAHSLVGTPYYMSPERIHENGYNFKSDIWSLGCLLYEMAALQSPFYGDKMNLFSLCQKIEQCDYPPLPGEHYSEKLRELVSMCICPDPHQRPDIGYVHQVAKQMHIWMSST

[21] = target: Serine/threonine-protein kinase PAK 6 (Homo sapiens) (UniProt Q9NQU5)
Serine/threonine-protein kinase PAK 6 (Homo sapiens), sequence (Q9NQU5 whole entry, looked up, canonical isoform): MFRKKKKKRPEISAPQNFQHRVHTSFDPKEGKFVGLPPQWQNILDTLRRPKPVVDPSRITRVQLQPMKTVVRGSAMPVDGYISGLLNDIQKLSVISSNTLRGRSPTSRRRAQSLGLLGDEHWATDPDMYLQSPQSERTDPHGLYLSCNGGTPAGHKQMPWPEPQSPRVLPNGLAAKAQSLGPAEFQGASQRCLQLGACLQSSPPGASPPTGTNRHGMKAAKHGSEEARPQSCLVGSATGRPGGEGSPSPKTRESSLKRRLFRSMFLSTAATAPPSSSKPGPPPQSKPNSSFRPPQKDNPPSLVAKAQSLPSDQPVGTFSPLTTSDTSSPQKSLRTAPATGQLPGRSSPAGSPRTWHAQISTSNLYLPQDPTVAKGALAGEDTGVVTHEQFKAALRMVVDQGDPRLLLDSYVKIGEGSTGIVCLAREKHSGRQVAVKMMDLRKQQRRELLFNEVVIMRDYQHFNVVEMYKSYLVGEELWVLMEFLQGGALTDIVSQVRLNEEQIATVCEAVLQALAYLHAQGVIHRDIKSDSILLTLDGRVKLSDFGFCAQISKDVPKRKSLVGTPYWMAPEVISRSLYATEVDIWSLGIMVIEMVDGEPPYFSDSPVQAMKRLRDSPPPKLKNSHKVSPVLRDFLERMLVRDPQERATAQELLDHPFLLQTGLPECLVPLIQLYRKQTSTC

[22] = system: Phosphatidylinositol 4,5-bisphosphate 3-kinase catalytic subunit alpha isoform (Homo sapiens), P42336 [C420R]
[23] = target: Phosphatidylinositol 5-phosphate 4-kinase type-2 beta (Homo sapiens) (UniProt P78356)
[24] = target: Protein-tyrosine kinase 2-beta (Homo sapiens) (UniProt Q14289)
[25] = target: Receptor-interacting serine/threonine-protein kinase 1 (Homo sapiens) (UniProt Q13546)
[26] = target: Rho-associated protein kinase 1 (Homo sapiens) (UniProt Q13464)
[27] = target: Ribosomal protein S6 kinase alpha-2 (Homo sapiens) (UniProt Q15349)
[28] = target: SRSF protein kinase 3 (Homo sapiens) (UniProt Q9UPE1)
[29] = target: Testis-specific serine/threonine-protein kinase 1 (Homo sapiens) (UniProt Q9BXA7)
[30] = target: Mitogen-activated protein kinase kinase kinase 20 (Homo sapiens) (UniProt Q9NYL2)
[31] = Compound concentration 100.0 nM
[32] = Compound concentration 1000.0 nM

For `Cc1cc(C)c(-n2ccn3nc(-c4cccnc4)cc23)cc1NC(=O)c1cc(C#N)cc(S(F)(F)(F)(F)F)c1` [BAY-826], the EC50 (Ephrin type-B receptor 6) was 12 µM (not active), the IC50 (Ephrin type-B receptor 6) was 3.9 µM (not active) and the residual activity [1, 31] was 65.8%. For the same molecule, the residual activity [2, 31] was 88.7%, the residual activity [3, 31] was 88.4% and the residual activity [4, 31] was 82.7%. For the same molecule, the residual activity [5, 31] was 100%, the residual activity [6, 31] was 100% and the residual activity [7, 31] was 93.6%. For the same molecule, the residual activity [8, 31] was 100%, the residual activity [9, 31] was 85.1% and the residual activity [10, 31] was 71.4%. For the same molecule, the residual activity [11, 31] was 68.3%, the residual activity [12, 31] was 100% and the residual activity [13, 31] was 83.3%. The residual activity [14, 31] was 72.1%, the residual activity [15, 31] was 100% and the residual activity [16, 31] was 93.1%. For the same molecule, the residual activity [17, 31] was 66.1%, the residual activity [18, 31] was 95% and the residual activity [19, 31] was 75.6%. For the same molecule, the residual activity [20, 31] was 93.9%, the residual activity [21, 31] was 70.1% and the residual activity [22, 31] was 85.4%. For the same molecule, the residual activity [23, 31] was 52.2%, the residual activity [24, 31] was 81.4% and the residual activity [25, 31] was 91.5%. For the same molecule, the residual activity [26, 31] was 74.9%, the residual activity [27, 31] was 90.9% and the residual activity [28, 31] was 100%. The residual activity [29, 31] was 100% and the residual activity [30, 31] was 97.5%.

In the case of `Cc1cc(NC(=O)c2cccc(S(F)(F)(F)(F)F)c2)cc(-n2ccn3nc(-c4cccnc4)cc23)c1` [BAY-309], the EC50 (Ephrin type-B receptor 6) was 27 µM (not active), the IC50 (Ephrin type-B receptor 6) was 11 µM (not active) and the residual activity [1, 32] was 100%. The residual activity [2, 32] was 100%, the residual activity [3, 32] was 82.5% and the residual activity [4, 32] was 100%. The residual activity [5, 32] was 86.7%, the residual activity [6, 32] was 83.8% and the residual activity [7, 32] was 100%. For the same molecule, the residual activity [8, 32] was 100%, the residual activity [9, 32] was 100% and the residual activity [10, 32] was 100%. The residual activity [11, 32] was 99.2%, the residual activity [12, 32] was 100% and the residual activity [13, 32] was 100%. The residual activity [14, 32] was 98.7%, the residual activity [15, 32] was 65.5% and the residual activity [16, 32] was 28.7%. For the same molecule, the residual activity [17, 32] was 76.9%, the residual activity [18, 32] was 85.2% and the residual activity [19, 32] was 71%. It also gave a residual activity [20, 32] of 97%, a residual activity [21, 32] of 100% and a residual activity [22, 32] of 97.1%. For the same molecule, the residual activity [23, 32] was 100%, the residual activity [24, 32] was 100% and the residual activity [25, 32] was 80.7%. It also gave a residual activity [26, 32] of 74.8%, a residual activity [27, 32] of 84% and a residual activity [28, 32] of 100%. The residual activity [29, 32] was 100% and the residual activity [30, 32] was 84.4%.
